Assay results from patent US20250127898A1, “PHOTODYNAMIC THERAPY AND DIAGNOSIS” (RMW CHO Group Limited, priority 2021, published 2025).
Structures can show the parent of a compound that is named as a salt. Where two headings read alike, the source gives them in different places. Where a SMILES comes first, the peptide text is derived from it. The star is where a group is joined. X1 = CCC1=C(C)c2cc3[nH]c(cc4nc(c(C)c5cc(C)c(cc1n2)[nH]5)[C@@H](CCC(=O)*)[C@@H]4C)c(C)c3CC

Columns and labels:
[1] = system: Human ovarian cancer cell line SKOV3; assay: Phototoxicity in SKOV3 cells after 660 nm laser or LED activation (AlamarBlue viability); format: cell-based
Procedure: Samples were stored at 4° C. protected from light. […] All data are shown as mean±SD (where appropriate). […] Laser and LED exposure induce an equivalent response in relation to phototoxicity. Following activation, cells were cultured for a further 24 hours. Media was then replaced with fresh media containing AlamarBlue, and % viable cells remaining assessed as above. Controls included cells treated with reduced chlorin analogues but not activated by laser light; cells without reduced chlorin analogue treatment but with laser light; and untreated controls. All measurements were made in quadruplicate.

[2] = system: Human ovarian cancer cell line SKOV3; assay: Inherent cytotoxicity (dark toxicity) in SKOV3 cells (AlamarBlue viability); format: cell-based
Procedure: Photosensitizers (e.g. chlorin analogue, chlorin e4 disodium (provided by Advanced Molecular Technologies, Scoresby) or Talaporfin sodium (purchased from Focus Bioscience cat #HY-16477-5MG)) were resuspended in 100% dimethylsulfoxide (DMSO) at a concentration of 5.5 mM. Samples were stored at 4° C. protected from light.
All data are shown as mean±SD (where appropriate).
Untreated cells were used as a control. […] All measurements were made in quadruplicate.

[3] = SKOV3 cells, 24 hours incubation, no light activation
[4] = Homo sapiens, SK-OV-3, light or radiation study, SKOV3 cells, 24 hours uptake, 660 nm laser, 50 mW/cm^2 for 5 mins (15 J/cm^2), viability 24 hours after activation, read-out: Phototoxicity μM (IC90)
[5] = SKOV3 cells, vs phyllochlorin free acid / phyllochlorin sodium salt
[6] = Homo sapiens, SK-OV-3, light or radiation study, SKOV3 cancer cells, laser or LED, read-out: phototoxicity IC90
[7] = Homo sapiens, SK-OV-3, light or radiation study, SKOV3 cells, 24 hours uptake, 660 nm LED panel, 50 mW/cm^2 for 5 mins (15 J/cm^2), values marked *, read-out: Phototoxicity μM (IC90), measured by LED

| Compound | IC90 [1, 4] [µM] | Dark toxicity μM (IC10) ([2]; human, 24 h) [µM] | further results |
| --- | --- | --- | --- |
| C=Cc1c(C)c2cc3nc(c(C)c4[nH]c(cc5nc(cc1[nH]2)C(C)=C5CC)c(C)c4C(=O)O)[C@@H](CCC(=O)O)[C@@H]3C [Chlorin e4 disodium, chlorin e4 disodium, reference compound] |  |  | IC90 ([1]; SKOV3 cells, 24 hours uptake, 660 nm laser, 50 mW/cm^2 for 5 mins (15 J/cm^2), viability 24 hours after activation, read-out: Phototoxicity μM (IC90)): 21.3 µM; Dark toxicity μM (IC10) [2, 3]: 40.23 µM |
| CCC1=C(C)c2cc3[nH]c(cc4nc(c(C)c5cc(C)c(cc1n2)[nH]5)[C@@H](CCC(=O)[O-])[C@@H]4C)c(C)c3CC.[Na+] [Compound 2, Reduced Phyllochlorin Sodium Salt] | 0.071 |  | increase in phototoxicity of meso-compound compared to non-meso analogue [1, 5]: 4.9 fold; Dark toxicity μM (IC10) [2, 3]: 47.840 µM; Dark toxicity compared to non-meso analogue [2, 5]: largely unaffected |
| CCC1=C(C)c2cc3[nH]c(cc4nc(c(C)c5cc(C)c(cc1n2)[nH]5)[C@@H](CCC(=O)N[C@H]1C(O)O[C@H](CO)[C@@H](O)[C@@H]1O)[C@@H]4C)c(C)c3CC (stereo partly shown) [Compound 3, Reduced Phyllochlorin 2-deoxyglucosamine-propylamide] | 0.043 | 13.330 |  |
| CCC1=C(C)c2cc3[nH]c(cc4nc(c(C)c5cc(C)c(cc1n2)[nH]5)[C@@H](CCC(=O)N(C)CCCS[C@@H]1O[C@H](CO)[C@@H](O)[C@H](O)[C@H]1O)[C@@H]4C)c(C)c3CC [Compound 4, Reduced Phyllochlorin β-D-1-thioglucose-N-methylpropylamide] | 0.068 | 2.780 |  |
| CCC1=C(C)c2cc3[nH]c(cc4nc(c(C)c5cc(C)c(cc1n2)[nH]5)[C@@H](CCC(=O)N(C)CCOCCO[C@@H]1O[C@H](CO)[C@@H](O)[C@H](O)[C@H]1O)[C@@H]4C)c(C)c3CC [Compound 5, Reduced Phyllochlorin β-D-1-glucose-N-methyl-2-ethoxy-N-ethanamine] | 0.102 | 18.440 |  |
| CCC1=C(C)c2cc3[nH]c(cc4nc(c(C)c5cc(C)c(cc1n2)[nH]5)[C@@H](CCC(=O)N(C)CCCO[C@@H]1O[C@H](CO)[C@@H](O)[C@H](O)[C@H]1O)[C@@H]4C)c(C)c3CC [Compound 9, Reduced Phyllochlorin β-D-glucosyl-N-methylpropylamide] | 0.098 | 12.780 |  |
| CCC1=C(C)c2cc3[nH]c(cc4nc(c(C)c5cc(C)c(cc1n2)[nH]5)[C@@H](CCC(=O)N(C)C[C@H](O)[C@@H](O)[C@H](O)[C@H](O)CO)[C@@H]4C)c(C)c3CC [Compound 10, Reduced Phyllochlorin N-meglumine-propylamide] |  | 4.905 |  |
| CCC1=C(C)c2cc3[nH]c(cc4nc(c(C)c5cc(C)c(cc1n2)[nH]5)[C@@H](CCC(=O)N(C)CCCOCCC[P+](c1ccccc1)(c1ccccc1)c1ccccc1)[C@@H]4C)c(C)c3CC [Compound 11] | 0.003 | 4.347 | IC90 [1, 6]: ≤ 0.01 µM; orders of magnitude greater phototoxicity compared to Talaporfin sodium ([1]; SKOV3 cells, IC90 compared): 4 orders of magnitude |
| CCC1=C(C)c2cc3[nH]c(cc4nc(c(C)c5cc(C)c(cc1n2)[nH]5)[C@@H](CCC(=O)N(C)CCOCCOCCO)[C@@H]4C)c(C)c3CC [Compound 12, Reduced Phyllochlorin N-(2-(2-(2-hydroxyethoxy)ethoxy)ethyl)-N-methyl-3-amide] | 0.078 | 5.975 |  |
| CCC1=C(C)c2cc3[nH]c(cc4nc(c(C)c5cc(C)c(cc1n2)[nH]5)[C@@H](CCC(=O)N(C)CCOCCOCC[n+]1ccccc1)[C@@H]4C)c(C)c3CC [Compound 13, Reduced Phyllochlorin N-(2-(2-(2-pyridiniumethoxy)ethoxy)ethyl)-N-methyl-3-amide chloride] | 0.006 | 1.260 | IC90 [1, 6]: ≤ 0.01 µM |
| CCC1=C(C)c2cc3[nH]c(cc4nc(c(C)c5cc(C)c(cc1n2)[nH]5)[C@@H](CCC(=O)N(C)CCOCCOCCOCCOCCOCCOC)[C@@H]4C)c(C)c3CC [Compound 14, Reduced Phyllochlorin N-methyl-N-3,6,9,12,15,18-hexaoxanonadecyl propylamide] | 0.161 | 3.940 |  |
| CCC1=C(C)c2cc3[nH]c(cc4nc(c(C)c5cc(C)c(cc1n2)[nH]5)[C@@H](CCC(=O)N[C@@H]1C(O)O[C@H](CO)[C@@H](O)[C@@H]1O)[C@@H]4C)c(C)c3CC (stereo partly drawn) [Compound 15, Reduced Phyllochlorin 2-deoxy-D-mannosamine-propylamide] | 0.07 | 5.400 |  |
| CCC1=C(C)c2cc3[nH]c(cc4nc(c(C)c5cc(C)c(cc1n2)[nH]5)[C@@H](CCC(=O)N(C)CCOCCOCC[P+](c1ccccc1)(c1ccccc1)c1ccccc1)[C@@H]4C)c(C)c3CC [Compound 16, Reduced Phyllochlorin N-(2-(2-(2-triphenylphosphoniumethoxy)ethoxy)ethyl)-N-methyl-3-amide chloride] | 0.011 | 3.205 |  |
| CCC1=C(C)c2cc3[nH]c(cc4nc(c(C)c5cc(C)c(cc1n2)[nH]5)[C@@H](CCC(=O)N(C)CCC[S+]([O-])[C@@H]1O[C@H](CO)[C@@H](O)[C@H](O)[C@H]1O)[C@@H]4C)c(C)c3CC (stereo partly drawn) [Compound 17, Reduced Phyllochlorin β-D-1-thioglucose-N-methylpropylamide sulfoxide] | 0.174 | 4.752 |  |
| CCC1=C(C)c2cc3[nH]c(cc4nc(c(C)c5cc(C)c(cc1n2)[nH]5)[C@@H](CCCN)[C@@H]4C)c(C)c3CC [Compound 18, Reduced Phyllochlorin 3-aminopropyl] | 0.01 | 3.946 | IC90 [1, 6]: ≤ 0.01 µM |
| CCC1=C(C)c2cc3[nH]c(cc4nc(c(C)c5cc(C)c(cc1n2)[nH]5)[C@@H](CCC(=O)N(C)CCO)[C@@H]4C)c(C)c3CC [Compound 19, Reduced Phyllochlorin N-2-hydroxyethyl-N-methyl propylamide] | 0.061 | 15.940 |  |
| CCC1=C(C)c2cc3[nH]c(cc4nc(c(C)c5cc(C)c(cc1n2)[nH]5)[C@@H](CCCO)[C@@H]4C)c(C)c3CC [Compound 20, Reduced Phyllochlorin 3-hydroxypropyl] | 0.063 | 5.825 |  |
| CCC1=C(C)c2cc3[nH]c(cc4nc(c(C)c5cc(C)c(cc1n2)[nH]5)[C@@H](CCC(=O)N(C)CCCCCCCCCC[P+](c1ccccc1)(c1ccccc1)c1ccccc1)[C@@H]4C)c(C)c3CC [Compound 21, Reduced Phyllochlorin ((methylamino)-10-decyl)triphenylphosphonium Chloride Propylamide] | 0.022 | 1.465 |  |
| CCC1=C(C)c2cc3[nH]c(cc4nc(c(C)c5cc(C)c(cc1n2)[nH]5)[C@@H](CCC(=O)N(C)CCCO)[C@@H]4C)c(C)c3CC [Compound 22, Reduced Phyllochlorin N-3-hydroxypropyl-N-methyl Propylamide] | 0.042 | 4.348 |  |
| CCC1=C(C)c2cc3[nH]c(cc4nc(c(C)c5cc(C)c(cc1n2)[nH]5)[C@@H](CCC(=O)N(C)CCCCCO)[C@@H]4C)c(C)c3CC [Compound 23, Reduced Phyllochlorin N-5-hydroxypentyl-N-methyl Propylamide] | 0.064 | 4.540 |  |
| CCC1=C(C)c2cc3[nH]c(cc4nc(c(C)c5cc(C)c(cc1n2)[nH]5)[C@@H](CCC(=O)N[C@H]1C(O)O[C@H](CO)[C@H](O)[C@@H]1O)[C@@H]4C)c(C)c3CC (stereo partly drawn) [Compound 24, Reduced Phyllochlorin 2-deoxy-D-galactosamine-propylamide] | 0.049 | 7.011 |  |
| CCC1=C(C)c2cc3[nH]c(cc4nc(c(C)c5cc(C)c(cc1n2)[nH]5)[C@@H](CCC(=O)N[C@@H](CCCCN)C(=O)N[C@@H](CCCCN)C(=O)N[C@@H](CCCCN)C(=O)N[C@@H](CCCCN)C(=O)N[C@@H](CCCCN)C(=O)N(C)C)[C@@H]4C)c(C)c3CC [Compound 26, Reduced Phyllochlorin lysyl-lysyl-lysyl-lysyl-lysyl Dimethylamide Propylamide Pentahydrochloride] (X1-KKKKK-NMe2) | 0.494 |  | Dark toxicity μM (IC10) [2, 3]: 14.670 µM |
| CCC1=C(C)c2cc3[nH]c(cc4nc(c(C)c5cc(C)c(cc1n2)[nH]5)[C@@H](CCC[P+](c1ccccc1)(c1ccccc1)c1ccccc1)[C@@H]4C)c(C)c3CC [Compound 27, Reduced Phyllochlorin 3-triphenylphosphonium Propyl Iodide] |  | 1.326 | IC90 [1, 6]: ≤ 0.01 µM; IC90 [1, 7]: 0.0055 µM |
| CCC1=C(C)c2cc3[nH]c(cc4nc(c(C)c5cc(C)c(cc1n2)[nH]5)[C@@H](CCC(=O)N[C@@H](CCCCN)C(=O)N(C)C)[C@@H]4C)c(C)c3CC [Compound 31, Reduced Phyllochlorin N-Lysyl Dimethylamide Propylamide Hydrochloride] |  | 8.850 | IC90 [1, 7]: 0.011 µM |
| C=Cc1c(C)c2cc3nc(c(CC(=O)N[C@@H](CC(=O)O)C(=O)O)c4[nH]c(cc5nc(cc1[nH]2)C(C)=C5CC)c(C)c4C(=O)O)[C@@H](CCC(=O)O)[C@@H]3C [Talaporfin sodium, reference compound] |  | 11.10 |  |
